Laboratory results: patent US20250250559A1, “METHOD TO ANALYZE AND OPTIMIZE GENE EDITING MODULES AND DELIVERY APPROACHES” (Hoffmann-La Roche Inc., priority 2016, published 2025)
Values joined by “and” are separate entries in the source; they are usually repeats but may differ in a detail not shown here. Equal entries are not always repeated.

Assays:
[1] = system: DPH1 gene; assay: PM resistant colony count after DPH1 gene editing (PAC cassette integration); assay type: cell-based, human; settings: for # of PM resistant colonies (40,000 seeded cells): MCF7, individual samples A-D; for # of PM resistant colonies (mean of the samples) / # of PM resistant colonies: TF eff. = 38%; for # of PM resistant colonies: DPH1 assay (integr. vs. k.o.), individual samples
[2] = system: DPH1 gene; assay: DT resistant colony count after DPH1 gene editing (homozygous gene inactivation); assay type: cell-based, human; settings: for generation of DTr colonies: MCF7
[3] = DPH1 (gRNA length), TF eff. = 31%

Substance: 20 mer SpCas9 scRNA: Scrambled control gRNA GCACTACCAGAGCTAACTCA (SEQ ID NO: 03) with SpCas9 and donor plasmid [reference compound]
- # of PM resistant colonies (40,000 seeded cells) ([1]; DPH1 (gRNA length), TF eff. = 31%, listed as 20 mer scRNA): 7 and 6 and 9 and 10
- # of PM resistant colonies (40,000 seeded cells) (unheaded second sub-column: mean) [1, 3]: 8
- # of PM resistant colonies (40,000 seeded cells) ([1]; DPH1 assay (integr. vs. (integr. + k.o.)), TF eff. = 67*%, listed as 20 mer scRNA): 10 (2×) and 9 and 16
- # of PM resistant colonies (40,000 seeded cells) ([1]; DPH1 assay (integr. vs. (integr. + k.o.)), TF eff. = 67*%, listed as SCRNA): 16
- # of PM resistant colonies (40,000 seeded cells) ([1]; DPH1 assay (integr. vs. (integr. + k.o.)), TF eff. = 67*%, listed as scRNA): 10 (2×) and 9
- # of PM resistant colonies (40,000 seeded cells) (unheaded second sub-column: mean) ([1]; DPH1 assay (integr. vs. (integr. + k.o.)), TF eff. = 67*%): 11
- # of PM resistant colonies (mean of the samples) ([1]; DPH1 assay (integr. vs. k.o.), 10,000 seeded cells): 3
- # of PM resistant colonies (mean of the samples) ([1]; DPH1 assay (integr. vs. k.o.), 20,000 seeded cells): 9
- # of PM resistant colonies (mean of the samples) ([1]; DPH1 assay (integr. vs. k.o.), 40,000 seeded cells): 12
- # of PM resistant colonies ([1]; MCF7, 10,000 seeded cells): 3 (2×) and 2 and 4
- # of PM resistant colonies ([1]; MCF7, 10,000 seeded cells, listed as CRISPR Cas9 SCRNA): 3 (2×) and 2 and 4
- # of PM resistant colonies ([1]; MCF7, 20,000 seeded cells): 11 and 7 and 10 and 9
- # of PM resistant colonies ([1]; MCF7, 20,000 seeded cells, listed as CRISPR Cas9 SCRNA): 11 and 10 and 9
- # of PM resistant colonies ([1]; MCF7, 20,000 seeded cells, listed as CRISPR Cas9 scRNA): 7
- # of PM resistant colonies ([1]; MCF7, 40,000 seeded cells): 17 and 13 and 9 and 10
- # of PM resistant colonies ([1]; MCF7, 40,000 seeded cells, listed as CRISPR Cas9 SCRNA): 17 and 9 and 10
- # of PM resistant colonies ([1]; MCF7, 40,000 seeded cells, listed as CRISPR Cas9 scRNA): 13
- # of PM resistant colonies (80,000 seeded cells) ([1]; DPH1 assay editing entities, MCF-7, individual replicates, TF eff. = 33%): 4 and 3 and 5
- fold less PMr colonies than with DPH1-specific gRNA ([1]; otherwise identical conditions): 2 fold
- # of DT resistant colonies (20,000 seeded cells) ([2]; DPH1 (gRNA length), MCF7, individual samples A-D, TF eff. = 31%): 0
- # of DT resistant colonies (20,000 seeded cells) (unheaded second sub-column: mean) [2, 3]: 0
- # of DT resistant colonies (mean of the samples) ([2]; DPH1 assay (integr. vs. k.o.), 20,000 seeded cells, TF eff. = 38%): 0
- # of DT resistant colonies ([2]; DPH1 assay (integr. vs. k.o.), MCF7, 20,000 seeded cells, individual samples, TF eff. = 38%): 0
- generation of DTr colonies [2]: did not generate any DTr colony
- generation of DTr colonies ([2]; listed as scrambled guides): did not generate any DT-resistant colony
